Laboratory results: ChEMBL document CHEMBL4513145, “CO-ADD screening of Biotechnology Research Centre (C.R.B.t) (Algeria) compounds”
Converted amounts (≈) assume the structure as drawn.

What was measured:
HEK293 = test: cells; format: functional; settings: Homo sapiens, ATCC CRL1573, HEK293; ASSAY_TEST Inhibition of Cell Viability; detection method Resazurin; Fluorescence (ex560/em590); MEDIA DMEM with 10% FBS; plate type 384well; TC; CORNING #3712; time 18 hr
Escherichia coli = test: microbe, parasite or virus in culture; settings: ATCC 25922, 18 h, ASSAY_TEST Inhibition of Bacterial Growth, detection method Absorption (OD600), MEDIA CAMHB, plate type 384well, NBS, CORNING #3640
Description: Antibacterial activity against Escherichia coli ATCC 25922 (CO-ADD:GN_001); MIC in CAMBH media using NBS plates, by OD(600)

Klebsiella pneumoniae = test: microbe, parasite or virus in culture; settings: ATCC 700603, 18 h, ASSAY_TEST Inhibition of Bacterial Growth, detection method Absorption (OD600), MEDIA CAMHB, plate type 384well, NBS, CORNING #3640
Description: Antibacterial activity against Klebsiella pneumoniae MDR ATCC 70063 (CO-ADD:GN_003); MIC in CAMBH media using NBS plates, by OD(600)

Acinetobacter baumannii = test: microbe, parasite or virus in culture; settings: ATCC 19606, 18 h, ASSAY_TEST Inhibition of Bacterial Growth, detection method Absorption (OD600), MEDIA CAMHB, plate type 384well, NBS, CORNING #3640
Description: Antibacterial activity against Acinetobacter baumannii ATCC 19606 (CO-ADD:GN_034); MIC in CAMBH media using NBS plates, by OD600

Candida albicans = test: microbe, parasite or virus in culture; settings: ATCC 90028, ASSAY_TEST Inhibition of Fungal Growth, detection method Absorption (OD530), plate type 384well, NBS, CORNING #3640
Description: Antifungal activity against Candida albicans ATCC 90028 (CO-ADD:FG_001); MIC in YNB media using NBS plates, by OD630

Staphylococcus aureus = test: microbe, parasite or virus in culture; settings: ATCC 43300, 18 h, ASSAY_TEST Inhibition of Bacterial Growth, detection method Absorption (OD600), MEDIA CAMHB, plate type 384well, NBS, CORNING #3640
Description: Antibacterial activity against Staphylococcus aureus MRSA ATCC 43300 (CO-ADD:GP_020); MIC in CAMBH media, using NBS plates, by OD(600)

Pseudomonas aeruginosa = test: microbe, parasite or virus in culture; settings: ATCC 27853, 18 h, ASSAY_TEST Inhibition of Bacterial Growth, detection method Absorption (OD600), MEDIA CAMHB, plate type 384well, NBS, CORNING #3640
Description: Antibacterial activity against Pseudomonas aeruginosa ATCC 27853 (CO-ADD:GN_042); MIC in CAMBH media using NBS plates, by OD(600)

Description for Cryptococcus neoformans: Antifungal activity against Cryptococcus neoformans H99 ATCC 208821 (CO-ADD:FG_002); MIC in YNB media using NBS plates, by Resazurin OD(600-570)

| SMILES | MIC (Escherichia coli) [µg/mL] | MIC (Cryptococcus neoformans) [µg/mL] | MIC (Klebsiella pneumoniae) [µg/mL] | MIC (Acinetobacter baumannii) [µg/mL] | MIC (Candida albicans) [µg/mL] | MIC (Staphylococcus aureus) [µg/mL] | MIC (Pseudomonas aeruginosa) [µg/mL] | CC50 (HEK293) [µg/mL] |
| --- | --- | --- | --- | --- | --- | --- | --- | --- |
| CCCCCCCC1CN(C(=O)OCc2ccccc2)OC1O (stereo not given) | > 32 | > 32 | > 32 | > 32 | > 32 | > 32 | > 32 | > 32 |
| O=C(OCc1ccccc1)N1CC(Cc2ccccc2)C(O)O1 (stereo not given) | > 32 | > 32 | > 32 | > 32 | > 32 | > 32 | > 32 | > 32 |
| CC1CN(S(=O)(=O)c2ccc([N+](=O)[O-])cc2)N(C(=O)OC(C)(C)C)C1=O (stereo not given) | > 32 | > 32 | > 32 | > 32 | > 32 | 32 (≈ 83 µM) | > 32 | 6.8 (≈ 17.6 µM) |

Further lines, with some results ahead:

| MIC (Escherichia coli) [µg/mL] | MIC (Cryptococcus neoformans) [µg/mL] | MIC (Klebsiella pneumoniae) [µg/mL] | MIC (Acinetobacter baumannii) [µg/mL] | MIC (Candida albicans) [µg/mL] | MIC (Staphylococcus aureus) [µg/mL] | MIC (Pseudomonas aeruginosa) [µg/mL] | SMILES | CC50 (HEK293) [µg/mL] |
| --- | --- | --- | --- | --- | --- | --- | --- | --- |
| > 32 | 32 (≈ 135 µM) | > 32 | > 32 | > 32 | > 32 | > 32 | CC1CN(C(=O)OCc2ccccc2)OC1O (stereo not given) | > 32 |
| > 32 | > 32 | > 32 | > 32 | > 32 | > 32 | > 32 | CC1CN(S(=O)(=O)c2ccc([N+](=O)[O-])cc2)N(C(=O)OC(C)(C)C)C1O (stereo not given) | 6.19 (≈ 16 µM) |
